US10723716B2, “Alpha-helix mimetics as modulators of Abeta self-assembly” (New York University, priority 2016, dated 2020)
Entries after “also recorded” stand apart in the source; their conditions may differ.

Key:
Aβ42 = biological target: T1, Aβ42 (Homo sapiens, UniProt P05067); assay: ELISA with Aβ oligomer-specific antibody (OMAB); assay type: biochemical; conditions: for Aβ42 oligomers by ELISA on delayed addition: 2 μM Aβ42, compound added at 3 h and 6 h, equimolar; for ELISA absorbance (soluble Aβ42 oligomers, OMAB): Aβ42 incubated with compound, equimolar ratio, all time points
T1 construct: Cleavage of APP results in several Aβ isoforms; The predominant species are Aβ42 and Aβ40; purchased Anaspec (Fremont, Calif., USA)
T1 sequence (P05067 672-713 limits assumed): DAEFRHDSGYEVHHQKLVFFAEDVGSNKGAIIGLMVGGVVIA
Method: The ELISA was performed according to a previously published method (see Lindhagen-Persson, M.; Brännström, K.; Vestling, M.; Steinitz, M.; Olofsson, A. PLoS ONE 2010, 5, e13928). A Nunc-Immuno MaxiSorp plate (Sigma Aldrich, St. Louis, Mo., USA) was incubated with 2 μg mL^−1 Aβ oligomer-specific antibody (OMAB, Agrisera, Sweden) in PBS buffer overnight at 4° C. (200 μl/well). Wells were blocked with 5% fat-free milk in PBS buffer with 0.1% Tween 20 (PBST) for 1 h at 4° C. and washed with PBST buffer (×3). Wells were then treated with Aβ42 samples overnight at 4° C. […] Samples were diluted by 1:30 in PBS buffer before adding to a 96-well plate. After adding Aβ42 samples, the wells were washed (×3) with PBST buffer followed by the addition of 6E10 antibody (1/1000 dilution in 5% nonfat free milk in PBST buffer) for 1 h at r.t. Wells were washed (×5) with PBST buffer and treated with an anti-mouse HRP-conjugated IgG (1/10,000 dilution in 5% nonfat free milk in PBST buffer). Wells were washed (×5) with PBST buffer and treated with TMB Peroxidase EIA Substrate Kit (Biorad, Hercules, Calif., USA). The plates were developed until the color of the solution turned blue. The reaction was stopped by adding 100 μL of 1N H2SO4 to each well. The color of the solution changed to yellow from blue. The absorbance was recorded at 450 nm on a FlexStation 3 Multi-Mode Microplate reader from Molecular Devices (Sunnyvale, Calif., USA). Each sample was repeated in triplicate.

[1] = system: Aβ42 mediated toxicity in mouse neuroblastoma (N2a) cells; assay: Aβ42 mediated toxicity in Neuro-2a cells (MTS cell viability); assay type: cell-based; conditions: for cell viability: 5 μM Aβ42, equimolar ratio, 72 h; for effect on Aβ42 mediated cytotoxicity: equimolar ratio, Neuro-2a cells
Method: Cell viability was determined using a CellTiter 96® AQueous One Solution Cell Proliferation Assay (MTS) kit (Promega), which measures the reduction of the tetrazolium compound MTS (3-(4,5-dimethylthiazol-2-yl)-5-(3-carboxymethoxyphenyl)-2-(4-sulfophenyl)-2H-tetrazolium, inner salt) to soluble formazan by mitochondrial dehydrogenase enzyme in living cells. Formazan can be measured at 490 nm according to the manufacturer's instructions.
Neuro-2a cells (ATCC® […]) were maintained in serum-containing media [Dulbecco's Modified Eagle's Medium—high glucose (DMEM, Sigma) supplemented with 10% foetal bovine serum (FBS), 4 mM L-Glutamine (Sigma), and 1% penicillin/streptomycin (Sigma)] in 5% CO2 at 37° C. Once the cells reached ˜95% confluence, they were split (using 0.25% trypsin-EDTA, Sigma, St. Louis, USA), seeded at a density of 5×10^3 cells/well in 100 μL complete medium in 96-well plates and cultured for 48 h. Thereafter, the media was removed, the cells washed with phosphate buffered saline (PBS), and 90 μL of serum-free DMEM was added to the wells. A solution (A) containing 50 μM Aβ42 in NaOH (pH 10.5) was prepared and kept on ice, and a solution (B) containing 50 μM of the oligopyridylamide compound, H2O (2.33 μL/well) and 1× and 10×PBS was prepared and kept at room temperature. The solutions were combined, vortexed and 10 μL of this solution immeadiatly added to each well. The final concentrations in the wells were: 5 μM Aβ42, 5 μM oligopyridylamide, 200 μM NaOH, 0.1×PBS and 0.5% (v/v) DMSO.
To investigate the toxic effect of the peptide alone on cell viability, solution (B) without the oligopyridylamide compound was mixed with solution (A), while the effect of the oligopyridylamide compound alone was determined by adding solution (A) without peptide to solution (B). The effect of oligopyridylamides on seed-catalyzed Aβ42 aggregation was probed by preparing an additional solution (C) containing 0.5 μM seeds. The volume contributed by solution (C) was taken into account in preparing solution (B). Solution (C) was mixed with solution (B), and the resulting mixture was then added to solution (A) shortly before addition to the wells. To study the effect of oligopyridylamides on the oligomeric states of Aβ42, solution (A) was mixed with solution (B) without inhibitor and incubated at room temperature for 1, 2 or 3 h. Subsequently, 50 μM oligopyridylamides was added to the mixture, which was then immediately added to the cells. After culturing for 72 h in 5% CO2 at 37° C., 20 μL of MTS reagent was added to each well. The MTS reagent was incubated for 2.5 h at 37° C., and absorbance of the soluble formazan product (λ=490 nm) of MTS reduction was measured on a Synergy H1MF Multi-Mode microplate-reader (BioTek, Winooski, Vt., USA), with a reference wavelength of 650 nm to subtract the background. Wells treated with a solution containing serum-free DMEM, 200 μM NaOH, 0.1×PBS and 0.5% (v/v) DMSO served as control. MTS reduction was determined from the ratio of the absorbance of the treated wells to the control wells. Each data point represents an average of four independent quadruplet-well trials.

[2] = compound added to 5 μM Aβ42 after 1 h from start of amyloid reaction, Aβ42 alone 46%
[3] = compound added to 5 μM Aβ42 after 2 h from start of amyloid reaction, Aβ42 alone 57%
[4] = compound added to 5 μM Aβ42 after 3 h from start of amyloid reaction, Aβ42 alone 62%

COC(=O)c1ccc(NC(=O)c2ccc(NC(=O)c3ccc([N+](=O)[O-])c(OCc4ccccc4)n3)c(OCCCN)n2)c(OCCCN)n1 [ADH-41]
Aβ42 oligomers by ELISA on delayed addition (Aβ42): no evidence of oligomers
ELISA absorbance (soluble Aβ42 oligomers, OMAB) (Aβ42): significantly lower
cell viability [1]: 98±2%
rank order for the antagonist activity ([1]; Aβ42 mediated cytotoxicity and aggregation, 5 μM, 1:1 (FIG. 26a)): ADH41>ADH46>ADM-40≥ADM-45A
cell viability, preformed Aβ42 oligomers [1, 2]: 72%
cell viability, preformed Aβ42 oligomers [1, 3]: 68%
cell viability, preformed Aβ42 oligomers [1, 4]: 67%
effect on Aβ42 mediated cytotoxicity [1]: completely inhibited; also recorded: effective at rescuing cells; also recorded: equally effective; also recorded: completely rescues

COC(=O)c1ccc(NC(=O)c2ccc(NC(=O)c3ccc(NC(=O)c4ccc([N+](=O)[O-])c(OCC(C)C)n4)c(OCc4ccccc4)n3)c(OCC(=O)O)n2)c(OCC(=O)O)n1 [ADH-31]
Aβ42 oligomers by ELISA on delayed addition (Aβ42): no evidence of oligomers
ELISA absorbance (soluble Aβ42 oligomers, OMAB) (Aβ42): significantly lower
cell viability [1]: 97%±1%
cell viability, preformed Aβ42 oligomers [1, 2]: 90%
cell viability, preformed Aβ42 oligomers [1, 3]: 89%
cell viability, preformed Aβ42 oligomers [1, 4]: 95%
effect on Aβ42 mediated cytotoxicity [1]: effective at rescuing cells
